Tests used:
[1] = biological target: T1, Cathepsin K (Homo sapiens, UniProt P43235); test: Inhibition of cathepsin K
T1 sequence (P43235 whole entry): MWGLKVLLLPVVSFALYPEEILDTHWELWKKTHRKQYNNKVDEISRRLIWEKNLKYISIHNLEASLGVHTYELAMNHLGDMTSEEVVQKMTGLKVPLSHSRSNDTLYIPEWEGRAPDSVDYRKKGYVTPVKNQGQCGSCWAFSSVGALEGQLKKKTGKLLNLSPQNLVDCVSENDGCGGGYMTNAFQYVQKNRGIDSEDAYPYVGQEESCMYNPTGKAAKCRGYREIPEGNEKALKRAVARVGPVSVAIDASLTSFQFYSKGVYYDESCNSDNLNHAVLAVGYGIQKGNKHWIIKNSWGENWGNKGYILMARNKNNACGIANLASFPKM

[2] = biological target: T1, Cathepsin K; test: Inhibitory activity was evaluated against cathepsin K

Row | Ki [1] [nM] | Ki [2] [nM] | Compound
1 | 15 | – | CC(C)C[C@H](NC(=O)c1ccc2ccccc2n1)C(=O)N[C@H]1COCC1=O
2 | 14 | – | CC(C)C[C@H](NC(=O)c1ccc2ccccc2c1)C(=O)N[C@H]1COCC1=O
3 | 470 | – | CC(C)C[C@@H](NC(=O)c1ccc2ccccc2c1)C(=O)N[C@@H]1COCC1=O
4 | 7 | – | CC(C)C[C@H](NC(=O)c1cc2ccccc2s1)C(=O)N[C@H]1COCC1=O
5 | 590 | – | CC(C)C[C@@H](NC(=O)c1ccc2ccccc2n1)C(=O)N[C@@H]1COCC1=O
6 | 68 | – | CC(C)C[C@@H](NC(=O)c1cc2ccccc2s1)C(=O)N[C@@H]1COCC1=O
7 | 10 | 770 | COc1ccc(CC(=O)N[C@@H](CC(C)C)C(=O)NC2CCOCC2=O)cc1OC (some centres not stated)
8 | 32 | – | CC(C)C[C@H](NC(=O)c1ccc2ccccc2c1)C(=O)NC1CCOCC1=O (single isomer, unassigned; diastereomer 1)
9 | 8 | – | CC(C)C[C@H](NC(=O)c1cc2ccccc2s1)C(=O)NC1CCOCC1=O (single isomer, unassigned; diastereomer 1)
10 | 380 | – | CC(C)C[C@H](NC(=O)c1ccc2ccccc2c1)C(=O)NC1CCOCC1=O (single isomer, unassigned; diastereomer 2)
11 | 70 | – | CC(C)C[C@H](NC(=O)c1cc2ccccc2s1)C(=O)NC1CCOCC1=O (single isomer, unassigned; diastereomer 2)
